The record followed here is US20200246441A1, “COMPOSITIONS AND METHODS FOR AUTOIMMUNE DISEASE TREATMENT” (AMRITA VISHWA VIDYAPEETHAM, priority 2016, published 2020).

Test [1] deals with C57Bl/6 EAE mice. As to the kind of experiment: EAE induction and clinical scoring, MOG35-55-induced EAE in C57Bl/6 mice (chronic progressive model). The test is classed as in vivo, mouse. To be noted: for Disease incidence / Mortality: fraction of total; for Cumulative score / Day disease onset / Maximum score / Score at termination: mean ± SEM; for daily mean clinical score compared to controls: treatment prior to induction of EAE.

In test [2] the test system is C57Bl/6 EAE mice. As to the kind of experiment: Histological analysis of CNS tissue of C57Bl/6 EAE mice. The test is classed as in vivo, mouse. Also noted: key to Axonal damage: 0 = no axonal pathology, 3 = severe axonal pathology; key to Demyelination score: 0 = no demyelination, 3 = severe demyelination. To be noted: for Axonal damage / Demyelination score / Inflammation score: mean ± SEM; for CNS inflammation, demyelination and axonal damage: 500 nm NPs, versus bare NPs or scrambled MOG37-52 NPs. Here is the method: (§1) For histological analysis of CNS tissue, the brain and spinal cord were dissected from mice then fixed in 10% formalin (Sigma) for 24-48 h. Tissue was then processed and embedded in paraffin wax. Serial sections (5 μm) were cut from paraffin-embedded tissues and stained with hematoxylin and eosin, luxol fast blue and Bielschowsky silver impregnation to assess inflammation, demyelination and axonal damage, respectively. Sections were scored blind for semi-quantitative histological analysis of inflammation as follows: 0, no inflammation: 1, cellular infiltrate only in the perivascular areas and meninges; 2, mild cellular infiltrate in parenchyma: 3, moderate cellular infiltrate in parenchyma; 4, severe cellular infiltrate in parenchyma. Demyelination and axonal pathology were assessed by pale staining and scored blind as follows: 0, no demyelination/axonal pathology: 1, mild demyelination/axonal pathology; 2, moderate demyelination-axonal pathology; 3, severe demyelination/axonal pathology.

In test [3] the test system is NOD/Lt EAE mice. As to the kind of experiment: EAE induction and clinical scoring, recombinant mouse MOG-induced EAE in NOD/Lt mice (relapsing remitting model). The test is classed as in vivo. To be noted: for Disease incidence / Mortality / Cumulative score / Day disease onset / Maximum score / Score at termination: 200 nm silica peptide nanoparticles, NOD/Lt; for Disease incidence / Mortality: fraction of total; for Cumulative score / Day disease onset / Maximum score / Score at termination: mean ± SEM.

The subject of test [4] is NOD/Lt EAE mice. The test can be described thus: Histological analysis of CNS tissue of NOD/Lt EAE mice. The class given is in vivo, mouse. More on the design: key to Axonal damage: 0 = no axonal pathology, 3 = severe axonal pathology; key to Demyelination score: 0 = no demyelination, 3 = severe demyelination. Conditions: 200 nm silica peptide nanoparticles, mean ± SEM. Here is the method:
as §1

Test [5] concerns MOG-specific T-cells (spleen cells from MOG T-cell receptor transgenic (2D2) mice). As to the kind of experiment: Proliferation assay, 3H-thymidine incorporation. The test is classed as cell-based, mouse. Conditions: for T-cell proliferation (proliferative response): free peptide or 500 nm silica NPs, up to 8 ug/ml. As to the method:
Spleens were dissected from MOG T-cell receptor transgenic mice expressing the transgenic V3.2α/Vβ11 T-cell receptor specific for MOG35-55 peptide ([…]) in the context of 1-A^b. Single cell suspensions were prepared in complete RPMI medium containing 10% heat inactivated FBS, 2 mM L-glutamine, 100 U/ml penicillin, 100 μg/ml streptomycin, 50 μM 2-mercaptoethanol and 1 mM sodium pyruvate (Sigma). Following red blood cell lysis, splenocytes were seeded in triplicate in 96-well, flat bottom microtiter plates (Nunc) at a concentration of 2.5×10^5 cells per well. Splenocytes were cultured in medium alone or in the presence of increasing doses of MOG35-55 or nanoparticles. Cells were incubated at 37° C. for 72 hr with the addition of 1 μCi/well [3H]-thymidine (Perkin Elmer) for the last 18 hr of culture. Cells were harvested onto filter mats (Perkin Elmer) and incorporated radioactive nucleic acids counted using a Top Count NXT Scintillation Counter (Packard Biosciences).

Setting [6] is: 200 nm silica peptide nanoparticles.
The mark [7] stands for this setting: 500 nm silica peptide nanoparticles, i.v. day -7 and -1.
[8] abbreviates: 500 nm silica peptide nanoparticles.

“Also recorded” adds a separate entry of the source. Non-standard residues stand in square brackets, D forms with d. No end group written: not given here. βF = beta phenylalanine (beta-amino acid)

Consider “MOG37-52: silica nanoparticles coated with mouse MOG37-52 peptide VGWYRSPFSRVVHLYR; 500 nm in Table 1, 200 nm in Tables 2 and 3”, for which the “effect on clinical disease” value in the test with C57Bl/6 EAE mice [1] (200 nm NPs, C57BL/6 mice) was “significant effect on clinical disease”. Further, in the test on C57Bl/6 EAE mice [1] (setting [6]), the Disease incidence is 10/10, the Mortality is 0/10, the Cumulative score was 33.05 ± 2.086 ∧∧∧∧ and the Day disease onset is recorded as 15.70 ± 1.334. Also, in the test with C57Bl/6 EAE mice [1] (setting [6]), the Maximum score is given as 2.50 ± 0.1667^∧ and the Score at termination is given as 1.45 ± 0.2930^∧∧∧. Besides, in the test with C57Bl/6 EAE mice [1] (500 nm NPs), the “daily mean clinical score compared to controls” value was “significant reduction”. For the same substance, the Disease incidence in the test on C57Bl/6 EAE mice [1] (setting [7]) was 6/6. Besides, in the test on C57Bl/6 EAE mice [1] (setting [8]), the Mortality is reported as 0/6, the Cumulative score was 26.00 ± 8.039 ^**, the Day disease onset was 17.17 ± 2.151 and the Maximum score was 2.00 ± 0.3873. In the test with C57Bl/6 EAE mice [1] (setting [8]), the Score at termination was determined as 1.083 ± 0.3270. For the same substance, in the test on C57Bl/6 EAE mice [2] (200 nm silica nanoparticles), the “axonal damage compared to bear, scrambled MOG37-52 or ovalbumin nanoparticles” value is “significantly reduced axonal damage” and the “inflammation compared to bear nanoparticles” value was “significantly reduced inflammation”. In the test with C57Bl/6 EAE mice [2] (setting [6]), the Axonal damage is 1.35 ± 0.1833 # ^∧∧∧, the Demyelination score was found to be 1.85 ± 0.2242 and the Inflammation score is listed as 2.275 ± 0.3772^∧. The “CNS inflammation, demyelination and axonal damage” value in the test on C57Bl/6 EAE mice [2] is “reduction in CNS inflammation, demyelination and axonal damage; also recorded: significantly reduced inflammation, demyelination and axonal damage”. In the test on C57Bl/6 EAE mice [2] (setting [8]), the Axonal damage is on record as 1.208 ± 0.2275 ^∧∧, the Demyelination score is 0.833 ± 0.8333 ^** ∧∧∧∧ and the Inflammation score is 1.542 ± 0.2275 ^* ∧∧. Moreover, in the test on NOD/Lt EAE mice [3] (200 nm NPs, NOD/Lt mice), the disease severity entry was “significantly reduced disease severity”. Moreover, in the test with NOD/Lt EAE mice [3], the Disease incidence was 6/6, the Mortality is 0/6, the Cumulative score is 30.50 ± 3.266^∧∧ ^## and the Day disease onset was 17.33 ± 2.23. Further, in the test with NOD/Lt EAE mice [3], the Maximum score was 2.667 ± 0.1667^∧ and the Score at termination is reported as 2.25 ± 0.2814^∧. Also, in the test on NOD/Lt EAE mice [4], the Axonal damage turned out to be 2.833 ± 0.1667, the Demyelination score came to 2.917 ± 0.0833 and the Inflammation score was 4.167 ± 0.1667. In addition, in test [5] (200 nm NPs), the proliferative response entry is “did not induce a proliferative response that was above background levels”. In test [5], the “T-cell proliferation (proliferative response)” value (shortened to “T-cell proliferation”) was “comparable proliferative response; also recorded: comparable to the MOG37-52 peptide”.

In the case of “MOG44BF: 500 nm silica nanoparticles coated with MOG44βF peptide VGWYRSPβFSRVVHLYR (VGWYRSP[βF]SRVVHLYR; also: coated on 500 nm silica nanoparticles)”, in the test on C57Bl/6 EAE mice [1] (500 nm NPs), the “therapeutic effect compared to MOG37-52 coated NPs (onset, disease severity)” value is on record as “more significant therapeutic effect” and the “daily mean clinical score compared to controls” value is “significant reduction”. Moreover, the Disease incidence in the test on C57Bl/6 EAE mice [1] (setting [7]) is 2/6. Further, in the test with C57Bl/6 EAE mice [1] (setting [8]), the Mortality is listed as 0/6, the Cumulative score is 5.417 ± 3.967 ^**** ∧∧∧, the Day disease onset is listed as 29.17 ± 3.710^++ ^### *** ∧∧∧ and the Maximum score is 0.4167 ± 0.3270^++ ^*** ∧∧∧. The Score at termination in the test with C57Bl/6 EAE mice [1] (setting [8]) is on record as 0.1667 ± 0.1054 # ^∧. In addition, the “CNS inflammation, demyelination and axonal damage” value in the test on C57Bl/6 EAE mice [2] is “reduction in CNS inflammation, demyelination and axonal damage; also recorded: significantly reduced inflammation, demyelination and axonal damage”. In the test on C57Bl/6 EAE mice [2] (setting [8]), the Axonal damage is reported as 0.5833 ± 0.2007 ∧∧∧∧, the Demyelination score is recorded as 0.375 ± 0.08539^### *** ∧∧∧∧ and the Inflammation score was 0.7917 ± 0.2694^### *** ∧∧∧∧. The “T-cell proliferation” value in test [5] (listed as MOG440F) is given as “not capable of stimulating T-cell proliferation”. In addition, the “T-cell proliferation” value in test [5] (listed as MOG441F) is “did not induce a robust proliferative response”.

Regarding “MEVGWYRSPFSRVVHLYRNGK [MOG35-55, encephalitogenic mouse MOG peptide, free peptide, reference compound]”, the “T-cell proliferation” value in test [5] is recorded as “robust proliferation response”.

“ScrMOG37-52: control silica nanoparticles (500 nm or 200 nm) coated with scrambled MOG37-52 peptide RSVLVPSRWRHFYGVY [reference compound]”: in the test with C57Bl/6 EAE mice [1] (setting [6]), the Disease incidence was 8/8, the Mortality is given as 0/8, the Cumulative score is reported as 52.50 ± 4.621 and the Day disease onset is 13.38 ± 0.9051. Moreover, in the test on C57Bl/6 EAE mice [1] (setting [6]), the Maximum score was 3.313 ± 0.2825 and the Score at termination was found to be 2.313 ± 0.4525. Besides, the Disease incidence in the test with C57Bl/6 EAE mice [1] (setting [7]) is 6/6. In the test on C57Bl/6 EAE mice [1] (setting [8]), the Mortality is reported as 0/6, the Cumulative score was 52.5 ± 2.053, the Day disease onset came out at 12.67 ± 0.4216 and the Maximum score turned out to be 3.00 ± 0.0000. In the test with C57Bl/6 EAE mice [1] (setting [8]), the Score at termination was 1.833 ± 0.2108. Moreover, in the test on C57Bl/6 EAE mice [2] (setting [6]), the Axonal damage is 2.188 ± 0.2302, the Demyelination score was determined as 2.063 ± 0.2745 and the Inflammation score stood at 2.688 ± 0.3889. In the test with C57Bl/6 EAE mice [2] (setting [8]), this substance had an Axonal damage of 2.367 ± 0.2472, a Demyelination score of 2.333 ± 0.2108 and an Inflammation score of 2.917 ± 0.2007. In addition, in the test on NOD/Lt EAE mice [3], the Disease incidence was 6/6, the Mortality is reported as 0/6, the Cumulative score was 58.5 ± 2.772 and the Day disease onset is 13.00 ± 0.4472. In the test with NOD/Lt EAE mice [3], the Maximum score amounted to 3.583 ± 0.3005 and the Score at termination stood at 3.333 ± 0.3333. Further, in the test on NOD/Lt EAE mice [4], the Axonal damage turned out to be 2.583 ± 0.2007, the Demyelination score came to 2.583 ± 0.2007 and the Inflammation score is 3.583 ± 0.2713. Moreover, the “T-cell proliferation” value in test [5] was “not capable of stimulating T-cell proliferation”.
